# Data as given in patent publication US6689803B2, “Compositions and methods for treating surgical adhesions” (Angiotech Pharmaceuticals, Inc., priority 1996, dated 2004).
# Key:
# synoviocytes [1] = test: 3H-thymidine incorporation into synoviocytes; type: cell-based; settings: 6 or 24 hours
# Procedure: At these times, 1×10^−6 cpm of ^3H-thymidine was added to the cell culture and incubated for 2 hours at 37° C. The cells were placed through a cell harvester, washed through a filter, the filters were cut, and the amount of radiation contained in the filter sections determined. Once the amount of thymidine incorporated into the cells was ascertained, it was used to determine the rate of cell proliferation. This experiment was repeated three times and the data collated.
# LNCaP cells = test: LNCaP cell growth (crystal violet); type: cell-based, human; settings: Homo sapiens, LNCaP, 120 h; 5 days; read-out: EC50
# Procedure: LNCaP cells were seeded at concentrations of 2×10^3 and 1×10^3 cells/well respectively in 96 well plates. […] After incubation, the cells were fixed with 1% glutaraldehyde solution, and stained for 5 minutes with 0.5% crystal violet. The dye was successively eluted with 100 μl of buffer solution and the absorbance was read on a Titertek Multiskan microplate reader using a wavelength of 492 nm Absorbance. Cell growth was expressed as a percentage relative to control wells in the absence of the compound (set at 100%).
# EOMA cells = test: Endothelial cell proliferation (trypan blue exclusion); type: cell-based; settings: 48 hours
# Procedure: Following the incubation, the number of viable cells were determined using the trypan blue exclusion assay. […] All cell toxicity assays were performed three times, and each individual measurement was made in triplicate.
# MS symptoms = test: Demyelinating DM20 (ND4) transgenic mouse model of MS; type: in vivo; set-up: key to Seizures / Shaking / Hind Limb Paralysis / Head Tremors: 1+: slight but definite signs; 2+: increase in severity; 3+: signs worsened with limited movement; 4+: very severe signs with loss of motor control (moribund); settings: micellar paclitaxel 2.5 mg/kg s.c. 3 times per week, 7 injections
# From the text: These transgenic mice contain 70 copies of the transgene DM20, a myelin proteolipid. Clinically, the animals appear normal up to 3 months of age. After 3 months, evidence of neurological pathology, such as seizures, shaking, hind limb mobility, unsteadiness of gait, limp tail, wobbly gait and reduction in the degree of activity, appear and progressively increase in severity until the animals die between 6 and 8 months of age.
# For both of these sets of experiments, dosing was initiated at the clinical onset of disease (approximately 3 to 4 months of age).
# Animals were injected with the first dose once the initial signs of MS had reached a score of 1+ for the symptom categories described. The clinical scores and body weight were determined on each injection day and continued three times a week until the end of the study period (6 months of age). Scoring was based on a 1+ to 4+ system, whereby 1+=slight but definite signs, 2+=increase in severity, 3+=signs worsened with limited movement and 4+=very severe signs with loss of motor control (moribund).
# Three additional transgenic mice were used as controls and received an equivalent dose of PBS. […] Furthermore, four normal mice were used as controls and administered equivalent volumes of PBS.
# [2] = Paclitaxel solubility in permeation enhancers; type: physicochemical; settings: 37° C.
# Procedure: The following permeation enhancers were examined: Transcutol®, ethanol, propylene glycol, isopropyl myristate, oleic acid and Transcutol:isopropyl myristate (9:1 v:v). […] A sample of 0.5 ml of the fluid from each vial was centrifuged at 37° C. and 13000 rpm for 2 minutes. Aliquots (0.1 ml) of supernatant from the centrifuge tubes were transferred to volumetric flasks and diluted with methanol. Paclitaxel content was assessed by high pressure liquid chromatography (HPLC).
# NF-κB = NF-κB activity (cell-based) reporter assay in NIH-3T3; set-up: species or system murine; settings: 6-hour and 24-hour treatments
# Procedure: IL-1 and TNF were both identified as being proinflammatory cytokines that activate the transcription of genes driven by a transcription factor named NF-κB also involved in inflammatory processes. The inflammatory effect of IL-1 and TNF can therefore be indirectly assessed by means of a reporter gene assay (NF-κB) responding to IL-1 and TNF stimulation.
# On day one, 5×10^4 NIH-3T3 (murine fibroblast), stably transfected with a NF-κB reporter construct (Luciferase, Promega Corp.), were plated per well (24-well plate). Once confluent (on day 3-4), cells were starved by replacing the complete medium with 1 ml of serum-free medium. Following a 24-hour starvation, cells were treated with various concentrations of anti-microtubule agents 6 hours prior to the addition of IL-1 (20 ng/ml) and TNF (20 ng/ml). Cells were exposed to IL-1 and TNF for 1 hour and 16 hours and NF-κB activity measured 24 hours later. On day five, the medium was discarded and the cells were rinsed once with PBS. Cells were then extracted for 15 minutes with 250 μl of lysis buffer (Promega Corp., Wisconsin). NF-κB transcriptional activity was assessed by adding 25 μl of luciferase substrate to a tube containing 2.5 μl of cell extract. The tube was immediately inserted in a luminometer (Turner Designs) and light emission measured for 10 seconds. The luciferase data were then normalized for protein concentration.
# skin inflammation = test: Mouse ear skin inflammation (oxazolone delayed-type hypersensitivity, PMA)
# Procedure: Briefly, mice were sensitized to oxazolone by topical application of the compound onto the skin. Five days later, mice were challenged with oxazolone by topical application onto the ear skin (left ear: oxazolone, right ear: vehicle alone), resulting in a cutaneous inflammatory, “delayed-type hypersensitivity” reaction. […] Epon-embedded, Giesma-stained, 1 μm tissue sections were evaluated for the presence of inflammatory cells, for the presence of tissue mast cells and their state of activation, and for the degree of epidermal hyperplasia.
# [3] = test system: fibrous astrocytes (GFAP); test: GFAP and astrocytes in brain, transgenic mouse model of demyelinating disease; type: in vivo; settings: brain sections, transgenic mice
# From the text: Three days following the tenth injection, the experimental study was terminated and the brain tissues processed for histological analysis. For light microscopy, tissues were fixed in formalin and embedded in paraffin. Sections were stained with anti-GFAP antibody (DACO), washed and then reacted with secondary antibody conjugated with HPP. The sections were stained for HPP and counter-stained with haematoxylin.
# stromelysin (MMP-3) mRNA = test: IL-1 induced stromelysin mRNA expression in chondrocytes (Northern blot); type: cell-based
# From the text: The blots were subsequently stripped and reprobed with ^32P-radiolabeled rat GAPDH cDNA, which was used as a housekeeping gene. […] The MMP-1 and MMP-3 expression levels were normalized with GAPDH.
# synoviocytes [4] = test: Proliferation assay (MTT); type: cell-based; settings: 24-hour exposure
# Procedure: On day one, 5-10×10^4 synoviocytes were plated per well (96-well plate). Column #1 was kept free of cells (blank). On day 2, the plate was flicked to discard the medium and 200 μl of medium containing various concentrations of drug was added. […] There was no drug added to columns #1 and #2 (blank and untreated control, respectively). The medium containing the drug was discarded and 200 μl of fresh complete medium was added. The cells were then left to grow for an additional 3 to 4 days. On day five, 20 μl of dimethylthiazol diphenyltetrazolium bromide salt (MTT) (5 mg/ml PBS) was added and allowed to incubate for 4 hours at 37° C. The medium was decanted and 200 μl of DMSO was added.
# The data were expressed as the % of survival which was obtained by dividing the number of cells remaining after treatment by the number of cells in the untreated control column #2 (the number of cells was obtained from a standard done prior to the assay).
# [5] = transgenic mice, 6 months of age
smiles,measurement,setting,value
CC(=O)O[C@H]1C(=O)[C@@]2(C)[C@H]([C@H](OC(=O)c3ccccc3)[C@]3(O)C[C@H](OC(=O)[C@H](O)[C@@H](NC(=O)c4ccccc4)c4ccccc4)C(C)=C1C3(C)C)[C@]1(OC(C)=O)CO[C@@H]1C[C@@H]2O [paclitaxel],inhibits incorporation of 3H-thymidine at concentrations as low as,synoviocytes [1],10^−8 M
same,EC50,LNCaP cells,~0.09 nM
same,inhibition of endothelial cell proliferation,EOMA cells; 10^−7M or greater,completely inhibited cell proliferation
same,inhibition at 0.01 µM,"EOMA cells; Endothelial cell, 10^−8M",> 50%
same,Head Tremors,MS symptoms; normal mice,0
same,Hind Limb Paralysis,MS symptoms; normal mice,0
same,Seizures,MS symptoms; normal mice,0
same,Shaking,MS symptoms; normal mice,0
same,Weight Change,MS symptoms; normal mice,−0-5%
same,Weight Change,MS symptoms; transgenic mice,+5-10%
same,Head Tremors,MS symptoms; [5],1+
same,Hind Limb Paralysis,MS symptoms; [5],1+
same,Seizures,MS symptoms; [5],1+
same,Shaking,MS symptoms; [5],1+
same,"Paclitaxel concentration at saturation, Average",[2]; Ethanol,68.91 mg/mL
same,"Paclitaxel concentration at saturation, Average",[2]; Isopropyl myristate,0.43 mg/mL
same,"Paclitaxel concentration at saturation, Average",[2]; Oleic acid,0.31 mg/mL
same,"Paclitaxel concentration at saturation, Average",[2]; Propylene glycol,21.56 mg/mL
same,"Paclitaxel concentration at saturation, Average",[2]; Transcutol,346.9 mg/mL
same,"Paclitaxel concentration at saturation, Average","[2]; Transcutol, listed as Paclitaxel",346.85 mg/mL
same,"Paclitaxel concentration at saturation, Average",[2]; Transcutol:isopropyl myristate (9:1 v:v),353.9 mg/mL
same,"Paclitaxel concentration at saturation, Average","[2]; Transcutol:isopropyl myristate (9:1 v:v), listed as Paclitaxel",353.93 mg/mL
same,inhibitory effect on IL-1- and TNF-induced NF-κB activity,NF-κB,~2 µM
same,skin irritation,"skin inflammation; 1% paclitaxel formulation, 20 μl to each side of the ears daily for 8 days, normal or inflamed ear skin",no detection of skin irritation
same,ear swelling and skin erythema induced by PMA,skin inflammation; topical 1% paclitaxel formulation,significantly inhibited ear swelling and skin erythema
same,"ear swelling, delayed-type hypersensitivity reaction (oxazolone)",skin inflammation; topical 1% paclitaxel gel versus vehicle alone,significant decrease in ear swelling
same,number of fibrous astrocytes,[3],decreased significantly
same,concentration inhibiting stromelysin expression in vitro,stromelysin (MMP-3) mRNA,10^−6 M
same,stromelysin mRNA levels,"stromelysin (MMP-3) mRNA; 10^−5 M, pretreatment 24 hours, IL-1",complete inhibition
same,IC50,synoviocytes [4],~30 nM
